Values of other authors, collected in patent US20170022147A1, “FUMARATE COMPOUNDS, PHARMACEUTICAL COMPOSITIONS THEREOF, AND METHODS OF USE” (priority 2015, published 2017).

aqueous solubility: poor
SMILES: COC(=O)/C=C/C(=O)OC [DMF, dimethylfumarate]
